Experimental data reported in patent publication US9144576B2, “Topical antiviral formulations” (3B Pharmaceuticals, Inc., priority 2008, dated 2015).

Tests used:
HSV-1 = assay: In vitro assay for anti-HSV-1 mRNA activity (QuantiGene Plex 2.0 bDNA) in infected primary Adult Human Dermal Microvascular Endothelial Cells; type: cell-based, HSV type 1; conditions: variable slope fit; for LogIC50 (best-fit value): concentrations in μM, overnight incubation, triplicate
Description: (§1) In vitro assays for anti-HSV-1 and anti-HSV-2 mRNA activity are described in Example 1. Confluent Vero cell monolayers were infected with HSV type 1 or HSV type 2 at a multiplicity of infection of 10 and the resultant virus was used to infect primary Adult Human Dermal Microvascular Endothelial Cells for 1 hour; the supernatant was replaced with fresh culture media and then incubated overnight in the presence of various concentrations of acyclovir, 2-deoxy-D-glucose or an equimolar combination of the two compounds. After overnight incubation, the cells were harvested, lysed, and subjected to QuantiGene Plex 2.0 assay (Panomics, Inc., Fremont, Calif.) for quantitative assay of HSV-1 and HSV-2 mRNA. The QuantiGene Plex 2.0 assay combines branched DNA (bDNA) signal amplification and multi-analyte profiling beads (xMAP®) technologies to enable the detection and quantitation of multiple mRNA targets simultaneously. Briefly, confluent Vero cell monolayers were infected with HSV type 1 or HSV type 2 at a multiplicity of infection of 10 and the resultant virus was used to infect primary Adult Human Dermal Microvascular Endothelial Cells for 1 hour and then the supernatant was replaced with fresh culture media and then incubated overnight in the presence of various concentrations of acyclovir, 2-deoxy-D-glucose or an equimolar combination of the two compounds. […], this assay is considered to be a more sensitive and specific assay (bDNA) for the final readout when compared to an ELISA. The ELISA method while easier, can lack specificity to determine the difference between HSV1 and HSV2. The bDNA assay is a hybridization-based method of target-specific RNA quantitation that amplifies signal rather than target RNA, using labeled DNA probes. The QuantiGene Plex 2.0 system utilizes fluorescent microspheres (Capture Beads) as a support to capture specific RNA molecules. The ability to quantify multiple target-specific RNA molecules in a single sample lies in the design of the Probe Sets. […] The resulting fluorescence signal associated with individual Capture Beads is read on a Luminex flow cytometer. Signal is reported as median fluorescence intensity (MFI) and is proportional to the number of target RNA molecules present in the sample. […]

HSV-2 = assay: In vitro assay for anti-HSV-2 mRNA activity (QuantiGene Plex 2.0 bDNA) in infected primary Adult Human Dermal Microvascular Endothelial Cells; type: cell-based, HSV type 2; conditions: variable slope fit; for LogIC50 (best-fit value): concentrations in μM, overnight incubation, triplicate
Description: as §1

[1] = topical versus oral; cited from earlier work

| Compound | HillSlope (best-fit value) (HSV-1) | LogIC50 (best-fit value) (HSV-1) | HillSlope (best-fit value) (HSV-2) | LogIC50 (best-fit value) (HSV-2) | drug concentration in the skin after local application, lower than after given orally [1] |
| --- | --- | --- | --- | --- | --- |
| O=CC[C@@H](O)[C@H](O)[C@H](O)CO [2 Deoxy D glucose, 2-deoxy-D-glucose] | −2.395 | 1.32 | −3.957 | 0.9029 |  |
| Nc1nc2c(ncn2COCCO)c(=O)[nH]1 [Acyclovir, 9-(2-hydroxyethoxymethyl)guanine] | −1.108 | 0.2509 | −1.113 | 0.2805 | 2-3 times |
